# In patent US20100292081A1, “Herbicidal Control Using Sulfentrazone and Dithiopyr” (FMC Corporation, priority 2009, published 2010):
# What was measured:
# Assay type in all cases: in vivo
# [1] = system: crabgrass (Digitaria sp.); test: Early post-emergent control of crabgrass on turf plots (Example 4); settings: 1 to 4 leaf stage, 45 DAT, X-77 0.25% V/V
# Description: (§1) The presence of a synergistic effect between the two active ingredients is established with the aid of the Colby equation (see Colby, S. R., “Calculating Synergistic and Antagonistic Responses of Herbicide Combinations”, Weeds 1967, 15, pg 20-22): E=X+Y−(XY/100).
# (§2) Using the method of Colby, the presence of a synergistic interaction between two active ingredients is established by first calculating the expected activity, ‘E’, of the mixture based on activities of the two components applied alone. In the equation above, ‘X’ is the herbicidal activity in percentage control of sulfentrazone applied alone at rate ‘x’. The ‘Y’ term is the herbicidal activity of dithiopyr applied alone at rate ‘y’. The equation calculates ‘E’, the herbicidal activity of the mixture of ‘X’ at rate ‘x’ with ‘Y’ at rate ‘y’. If ‘E’ is lower than the observed activity, synergy is present. If the herbicidal effects are strictly additive, and no interaction has occurred, ‘E’ will be equal to or higher than the observed activity.
# (§3) Control of large crabgrass (Digitaria sanguinalis), parsley piert (Alchenilla arvensis), common chickweed (Stellaria media) and shiny cudweed (Gnaphalium spicatum) was evaluated at 23 days after treatment (DAT) for each test rate. In order t to provide a measure of the effectiveness of a herbicide's performance weed control ratings were based on visual observations of the presence or absence of various weeds or of symptoms (necrosis, wilting, curling of leaves, discoloration etc.) on weeds compared to lack of symptoms. Ratings are based on the 0 to 100 rating system, where 0 equals no control and 100 equals complete control, which generally makes use of direct-percentage figures. In this system the standard basis for comparison is an untreated weedy check. Counts are made of each weed species found in the untreated area of the study. This provides a basis to give a precise representation of both weed infestation and degree of control provided by various chemical treatments. Counts are made on randomly selected areas which are generally 1 square foot to 1 square yard in size. Ratings are made for each weed species found in the untreated treatments. For example, a random area in an untreated plot has 10 yellow nutsedge plants per square foot equaling 0% control. A treated plot has only 1 yellow nutsedge plant found in the randomly selected area equaling 90% control.
# Test compositions containing sulfentrazone (Dismiss™ Turf Herbicide), dithiopyr (DIMENSION® Ultra 40WP Specialty Herbicide) and mixtures thereof, were diluted with water to provide the appropriate test rate concentrations. A non-ionic surfactant (X-77) was added to each test solution, 0.25% V/V. […]
# Control of crabgrass (Digitaria sp.) was evaluated at 45 days after treatment for each test rate. […]
# [2] = system: broadleaf weeds (medic, buckhorn plantain, clover, red sorrel, dandelion); test: Post-emergent herbicidal evaluation on turf plots (Example 2), broadleaf weeds in total; settings: 45 DAT, NIS 0.25% V/V
# Description: as §1, §2, §3
# Test compositions containing sulfentrazone (Dismiss™ Turf Herbicide), dithiopyr (DIMENSION® Ultra 40WP Specialty Herbicide) and mixtures thereof, were diluted with water to provide the appropriate test rate concentrations. A non-ionic surfactant (NIS) was added to each test solution, 0.25% V/V.
# The size of each experimental turf plot was 4 feet by 4 feet, treating the inner 10 ft^2 per plot. The post-emergence application of each test composition was performed with a pressurized back-pack sprayer, calibrated to spray between 10 and 15 gallons per acre. Four replications were made for each test rate along an untreated control plot.
# Control of broadleaf weeds was evaluated at 45 days after treatment (DAT) for each test rate. The broadleaf weeds included medic (Medicago sp.), buckhorn plantain (Plantago lanceolata), clover (Trifolium sp.), red sorrel (Rumex acetosella) and dandelion (Traxacum afficinale). Percent control of the broadleaf weeds was reported as a total number of broadleaf weeds controlled, not as individual species. The evaluation results were compared with results observed in untreated control plots in the same trials as described in Example 1 to determine % control and are summarized in Table 2 below. There was no damage to the turf grass at any rate tested. The Colby equation expected values are also in Table 2.
# [3] = system: curly dock (Rumex crispus); test: Post-emergence control of curly dock on turf plots (Example 3)
# Description: as §1, §2, §3
# (§4) Test compositions containing sulfentrazone (Dismiss™ Turf Herbicide), dithiopyr (DIMENSION® Ultra 40WP Specialty Herbicide) and mixtures thereof, were diluted with water to provide the appropriate test rate concentrations.
# (§5) The size of each experimental turf plot was 4 feet by 4 feet, treating the inner 10 ft^2 per plot. The application of each test composition was performed with a pressurized back-pack sprayer, calibrated to spray between 10 and 15 gallons per acre. Four replications were made for each test rate along an untreated control plot.
# (§6) Pre-emergence control of crabgrass (Digitaria sp.) was evaluated 180 days after treatment (DAT). Post-emergence control of curly dock (Rumex crispus) and shiny cudweed (Gnaphalium spicatum) parsley were evaluated at 65 days after treatment for each test rate. The evaluation results were compared with results observed in untreated control plots in the same trials as described in Example 1 to determine % control and are summarized in Table 3 below. There was no damage to the turf grass at any rate tested. The Colby equation expected values are also in Table 3.
# [4] = system: shiny cudweed (Gnaphalium spicatum); test: Pre-emergent herbicidal evaluation on turf plots (Example 1), shiny cudweed
# Description: as §1, §2, §4, §5
# (§7) Control of large crabgrass (Digitaria sanguinalis), parsley piert (Alchenilla arvensis), common chickweed (Stellaria media) and shiny cudweed (Gnaphalium spicatum) was evaluated at 23 days after treatment (DAT) for each test rate. In order t to provide a measure of the effectiveness of a herbicide's performance weed control ratings were based on visual observations of the presence or absence of various weeds or of symptoms (necrosis, wilting, curling of leaves, discoloration etc.) on weeds compared to lack of symptoms. […]
# [5] = system: crabgrass (Digitaria sp.); test: Pre-emergence control of crabgrass on turf plots (Example 3)
# Description: as §1, §2, §3, §4, §5, §6
# [6] = system: common chickweed (Stellaria media); test: Pre-emergent herbicidal evaluation on turf plots (Example 1), common chickweed
# Description: as §1, §2, §4, §5, §7
# [7] = system: large crabgrass (Digitaria sanguinalis); test: Pre-emergent herbicidal evaluation on turf plots (Example 1), large crabgrass
# Description: as §1, §2, §4, §5
# In order t to provide a measure of the effectiveness of a herbicide's performance weed control ratings were based on visual observations of the presence or absence of various weeds or of symptoms (necrosis, wilting, curling of leaves, discoloration etc.) on weeds compared to lack of symptoms. Ratings are based on the 0 to 100 rating system, where 0 equals no control and 100 equals complete control, which generally makes use of direct-percentage figures. In this system the standard basis for comparison is an untreated weedy check. […]
# [8] = system: parsley piert (Alchenilla arvensis); test: Pre-emergent herbicidal evaluation on turf plots (Example 1), parsley piert
# Description: as §1, §2, §4, §5, §7
# [9] = system: shiny cudweed (Gnaphalium spicatum); test: Post-emergence control of shiny cudweed on turf plots (Example 3)
# Description: as §1, §2, §3, §4, §5, §6
compound,measurement,setting,value
"CSC(=O)c1c(C(F)F)nc(C(F)(F)F)c(C(=O)SC)c1CC(C)C [Dithiopyr, S,S′-dimethyl 2-(difluoromethyl)-4-(2-methylpropyl)-6-(trifluoromethyl)-3,5-pyridinedicarbothiolate]",% Control of Crabgrass,[1]; 0.25 lb/ac,50%
same,% Control of Crabgrass,[1]; 0.5 lb/ac,88%
same,% Broadleaf Weed Cover,[2]; 0.125 lb/ac,21%
same,% Control of Broadleaf Weeds,[2]; 0.125 lb/ac,0%
same,% Broadleaf Weed Cover,[2]; 0.25 lb/ac,8%
same,% Control of Broadleaf Weeds,[2]; 0.25 lb/ac,55%
same,% Control of Weeds Curly Dock 65 DAT Post-emergent application,[3]; 0.0125 lb/ac,36%
same,% Control of Weeds Curly Dock 65 DAT Post-emergent application,[3]; 0.25 lb/ac,60%
same,% Control of Weeds Shiny Cudweed 23 DAT,[4]; 0.5 lb/ac,29%
same,% Control of Weeds Crabgrass 180 DAT Pre-emergent application,[5]; 0.0125 lb/ac,59%
same,% Control of Weeds Crabgrass 180 DAT Pre-emergent application,[5]; 0.25 lb/ac,23%
same,% Control of Weeds Common Chickweed 23 DAT,[6]; 0.5 lb/ac,53%
same,% Control of Weeds Large Crabgrass 132 DAT,[7]; 0.5 lb/ac,88%
same,% Control of Weeds Parsley Piert 23 DAT,[8]; 0.5 lb/ac,38%
same,% Control of Weeds Shiny Cudweed 65 DAT Post-emergent application,[9]; 0.0125 lb/ac,53%
same,% Control of Weeds Shiny Cudweed 65 DAT Post-emergent application,[9]; 0.25 lb/ac,60%
"Cc1nn(-c2cc(NS(C)(=O)=O)c(Cl)cc2Cl)c(=O)n1C(F)F [Sulfentrazone, N-[2,4-dichloro-5-[4-difluoromethyl-4,5-dihydro-3-methyl-5-oxo-1H-1,2,4-triazol-1-yl]phenyl]methanesulfonamide]",% Control of Crabgrass,[1]; 0.125 lb/ac,30%
same,% Control of Crabgrass,[1]; 0.25 lb/ac,36%
same,% Broadleaf Weed Cover,[2]; 0.125 lb/ac,15%
same,% Control of Broadleaf Weeds,[2]; 0.125 lb/ac,16%
same,% Broadleaf Weed Cover,[2]; 0.25 lb/ac,10%
same,% Control of Broadleaf Weeds,[2]; 0.25 lb/ac,44%
same,% Control of Weeds Curly Dock 65 DAT Post-emergent application,[3]; 0.0625 lb/ac,0%
same,% Control of Weeds Curly Dock 65 DAT Post-emergent application,[3]; 0.125 lb/ac,16%
same,% Control of Weeds Curly Dock 65 DAT Post-emergent application,[3]; 0.25 lb/ac,20%
same,% Control of Weeds Shiny Cudweed 23 DAT,[4]; 0.25 lb/ac,43%
same,% Control of Weeds Shiny Cudweed 23 DAT,[4]; .0125 lb/ac,31%
same,% Control of Weeds Crabgrass 180 DAT Pre-emergent application,[5]; 0.0625 lb/ac,0%
same,% Control of Weeds Crabgrass 180 DAT Pre-emergent application,[5]; 0.125 lb/ac,0%
same,% Control of Weeds Crabgrass 180 DAT Pre-emergent application,[5]; 0.25 lb/ac,0%
same,% Control of Weeds Common Chickweed 23 DAT,[6]; 0.25 lb/ac,45%
same,% Control of Weeds Common Chickweed 23 DAT,[6]; .0125 lb/ac,23%
same,% Control of Weeds Large Crabgrass 132 DAT,[7]; 0.25 lb/ac,23%
same,% Control of Weeds Large Crabgrass 132 DAT,[7]; .0125 lb/ac,7%
same,% Control of Weeds Parsley Piert 23 DAT,[8]; 0.25 lb/ac,47%
same,% Control of Weeds Parsley Piert 23 DAT,[8]; .0125 lb/ac,40%
same,% Control of Weeds Shiny Cudweed 65 DAT Post-emergent application,[9]; 0.0625 lb/ac,30%
same,% Control of Weeds Shiny Cudweed 65 DAT Post-emergent application,[9]; 0.125 lb/ac,50%
same,% Control of Weeds Shiny Cudweed 65 DAT Post-emergent application,[9]; 0.25 lb/ac,50%
